This passage reports IC50 results from US9765054B2, “Histone deacetylase inhibitors and compositions and methods of use thereof” (CHDI Foundation, Inc., priority 2011, dated 2017).

Molecules are shown by their SMILES.

For assay [1], the system named is cellular histone deacetylase enzymatic activity in Jurkat E6-1 cells. Briefly: Inhibition of cellular HDAC activity, Boc-Lys(Tfa)-AMC substrate, in Jurkat E6-1 cells. The class given is cell-based. Conditions: Homo sapiens, Class IIa selective substrate Boc-Lys(Tfa)-AMC. An excerpt: The potency of Class IIa Histone Deacetylase (HDAC) inhibitors is quantified by measuring the cellular histone deacetylase enzymatic activity using the Class IIa selective substrate, Boc-Lys(Tfa)-AMC. After penetration in Jurkat E6-1 cells, the substrate is deacetylated to Boc-Lys-AMC. After cell lysis and cleavage by trypsin, the fluorophore AMC is released from the deacetylated substrate only. The fluoresence of the sample is directly related to the histone deacetylase activity in the sample.
Jurkat E6.1 Cell Culture and Plating.
Jurkat E6.1 cells are cultured according to standard cell culture protocols in Jurkat E6.1 Growth Media (RPMI without phenol red, 10% FBS, 10 mM HEPES, and 1 mM Sodium Pyruvate). Jurkat E6.1 cells are counted using a Coulter Counter and resuspended in Jurkat E6.1 growth media at a concentration of 75,000 cells/35 μl. 35 μl or 75,000 cells is seeded into Greiner microtitre assay plates. The plates are then incubated at 37° C. and 5% CO2 while other assay components are being prepared.
Serially Dilute HDAC Inhibitor Compounds.
Serial dilutions of the HDAC inhibitors and control reference compound (1-(5-(3-((4-(1,3,4-oxadiazol-2-yl)phenoxy)methyl)-1,2,4-oxadiazol-5-yl)thiophen-2-yl)-2,2,2-trifluoroethanone) are made by first resuspending the lyophilized compound to a final concentration of 10 mM in 100% DMSO. Stocks of 70 μl aliquots of the 10 mM compound in DMSO are prepared and stored at −20° C. From one stock aliquot of each compound to be tested and the reference compound, a 16-point serial dilution is prepared according to Table 7 using a 125 μl 16-channel Matrix multi-channel pipette.
2 μl (200×) of each diluted solution and each control (full activity: 100% DMSO alone or full inhibition 1 mM) is stamped into V-bottom polypropylene 384-well compound plates using either the Bravo, Janus, or […] 16-channel Matrix multi-channel pipette. Each well with the 200× compound solution is diluted 1:20 by the addition of 38 μl Jurkat assay buffer+DMSO (9.5% DMSO, RPMI without phenol red, 0.09% FBS, 9 mM Hepes, and 0.9 mM Sodium Pyruvate equilibrated to room temperature)
Prepare 5× (500 μM) Boc-Lys(Tfa)-AMC Substrate.
5× (500 μM) substrate is prepared just prior to the addition to the assay. The 5× substrate is prepared by diluting a 100 mM Boc-Lys(Tfa)-AMC in DMSO solution 1:200 by adding it drop-wise to Jurkat assay medium (RPMI without phenol red, 0.1% FBS, 10 mM Hepes, and 1 mM Sodium Pyruvate equilibrated to 37° C.) while vortexing at slow speed to prevent precipitation.
10 ml of 3× lysis buffer is prepared with 8.8 ml of 3× stock lysis buffer (50 mM Tris-HCl, pH 8.0, 137 mM NaCl, 2.7 mM KCl, 1 mM MgCl2, 1% Nonidet P40 Substitute equilibrated to room temperature) and 1.2 ml of 3 mg/ml Trypsin equilibrated to room temperature.
5 μl of each solution of 1:20 diluted compound from above is transferred to the Greiner microtitre assay plates with 75,000 cells/well using the Bravo. Cells are then incubated for 2 hours at 37° C. and 5% CO2. The assay is then started by adding 10 μl of 5× (500 μM) substrate to the assay plate using either the Bravo or 16-channel Matrix multi-channel pipette. The cells are then incubated for 3 hours at 37° C. and 5% CO2. Next, 25 μl of 3× lysis buffer is added to each well using either the 125 μl 16 channel pipette or the Bravo. The assay plate is then incubated overnight (15-16 hours) at 37° C. and 5% CO2. The following day, the plates are shaken on an orbital shaker for 1 minute at 900 rpm. Finally the top read fluorescence (Excitation: 355 nm, Emission: 460 nm) is measured using PerkinElmer EnVision.

For assay [2], the target named is human catalytic domain HDAC4 protein (Homo sapiens, UniProt P56524, A743G/DEL730-739/DEL742-742). Briefly: Inhibition of HDAC4 catalytic domain enzymatic activity, Boc-Lys(Tfa)-AMC substrate, fluorescence.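 Further: trypsin releases AMC from deacetylated substrate, fluorescence tracks enzyme activity, 15 min reaction at 37 °C, 100% activity defined by DMSO-only control.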 The note with it: Class IIa selective substrate Boc-Lys(Tfa)-AMC, read-out: Biochemical HDAC-4 IC50.

In general, IC50 refers to the concentration needed to halve the response being measured. Regarding `O=C(NO)[C@@H]1[C@H](c2ccccc2)[C@H]1c1ccc(NS(=O)(=O)C2CC2)cc1` (racemic) [Compound 22, (1R*,2R*,3R*)-2-(4-(cyclopropanesulfonamido)phenyl)-N-hydroxy-3-phenylcyclopropanecarboxamide], the IC50 is 1320 nM in assay [1] and 50 nM in assay [2].
The matching figures for `O=C(NO)[C@H]1[C@H](c2cc(C3CC3)nc(C3CC3)c2)[C@H]1c1ccccc1F` [Compound 88, (1S,2R,3R)-2-(2,6-Dicyclopropylpyridin-4-yl)-3-(2-fluorophenyl)-N-hydroxycyclopropanecarboxamide]: 1480 nM and 200 nM.
The matching figures for `O=C(NO)[C@H]1[C@H](c2ccnc(C3CC3)c2)[C@H]1c1ccccc1F` [Compound 28c, (1S,2R,3R)-2-(2-Cyclopropylpyridin-4-yl)-3-(2-fluorophenyl)-N-hydroxycyclopropanecarboxamide]: 530 nM and 40 nM.
The like results for `CC(C)N1CCN(c2ccc([C@H]3[C@H](C(=O)NO)[C@@H]3c3ccccc3)cc2)CC1` (racemic) [Compound 56a, (1R*,2R*,3R*)—N-Hydroxy-2-(4-(4-isopropylpiperazin-1-yl)phenyl)-3-phenylcyclopropanecarboxamide] were, in that order, 760 nM and 90 nM.
